Targets include PIKFYVE (Homo sapiens, UniProt Q9Y2I7); CSNK1G1 (Homo sapiens, UniProt Q9HCP0); EPHA2 (Homo sapiens, UniProt P29317); KIT (Homo sapiens, UniProt P10721); CDK8 (Homo sapiens, UniProt P49336); PIK3CA(I800L) (Homo sapiens, UniProt P42336, I800L).
What all share (assay): biochemical
Parameters in all cases: DiscoveRx KINOMEscan active site-directed competition binding; percent of control kinase bound to immobilised ligand

The next assay has as its target T1, PIP5K2C (Homo sapiens, UniProt Q8TBX8).
T1 construct: gene PIP4K2C
T1 sequence (Q8TBX8 1-421): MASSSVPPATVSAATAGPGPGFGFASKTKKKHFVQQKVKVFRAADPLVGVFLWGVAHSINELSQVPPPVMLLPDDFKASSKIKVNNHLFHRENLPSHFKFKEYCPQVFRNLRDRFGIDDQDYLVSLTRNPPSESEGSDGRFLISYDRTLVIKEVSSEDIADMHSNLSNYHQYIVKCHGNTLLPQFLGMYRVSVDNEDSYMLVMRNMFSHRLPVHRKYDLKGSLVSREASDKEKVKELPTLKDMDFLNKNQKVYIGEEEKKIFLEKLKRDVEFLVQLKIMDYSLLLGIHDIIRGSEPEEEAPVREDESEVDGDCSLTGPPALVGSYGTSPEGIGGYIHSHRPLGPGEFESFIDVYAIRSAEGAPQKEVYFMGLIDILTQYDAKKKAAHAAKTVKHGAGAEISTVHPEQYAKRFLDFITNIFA

The target of another assay is T2, GCN2(Kin.Dom.2,S808G) (Homo sapiens, UniProt Q9P2K8, S808G).
T2 construct: gene EIF2AK4; Kin.Dom.2

In assay [1] the target is T3, ABL1(F317L)-nonphosphorylated (Homo sapiens, UniProt P00519, F317L).
T3 construct: nonphosphorylated

In a further assay the target is T4, LKB1 (Homo sapiens, UniProt Q15831).
T4 construct: gene STK11
T4 sequence (Q15831 1-433): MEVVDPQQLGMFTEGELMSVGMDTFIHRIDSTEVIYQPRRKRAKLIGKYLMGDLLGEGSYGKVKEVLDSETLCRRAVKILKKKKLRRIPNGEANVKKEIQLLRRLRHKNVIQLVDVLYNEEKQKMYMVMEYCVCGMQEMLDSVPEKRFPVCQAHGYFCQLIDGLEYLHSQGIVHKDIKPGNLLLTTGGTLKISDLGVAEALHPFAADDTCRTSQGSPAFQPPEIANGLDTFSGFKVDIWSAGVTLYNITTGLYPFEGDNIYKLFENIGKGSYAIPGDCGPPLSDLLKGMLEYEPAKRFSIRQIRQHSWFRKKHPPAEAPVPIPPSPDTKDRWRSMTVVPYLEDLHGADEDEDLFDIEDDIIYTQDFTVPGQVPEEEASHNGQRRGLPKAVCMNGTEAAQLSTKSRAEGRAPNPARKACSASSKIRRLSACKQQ

The target in another assay is T5, MAP4K3 (Homo sapiens, UniProt Q8IVH8).
T5 sequence (Q8IVH8 1-894): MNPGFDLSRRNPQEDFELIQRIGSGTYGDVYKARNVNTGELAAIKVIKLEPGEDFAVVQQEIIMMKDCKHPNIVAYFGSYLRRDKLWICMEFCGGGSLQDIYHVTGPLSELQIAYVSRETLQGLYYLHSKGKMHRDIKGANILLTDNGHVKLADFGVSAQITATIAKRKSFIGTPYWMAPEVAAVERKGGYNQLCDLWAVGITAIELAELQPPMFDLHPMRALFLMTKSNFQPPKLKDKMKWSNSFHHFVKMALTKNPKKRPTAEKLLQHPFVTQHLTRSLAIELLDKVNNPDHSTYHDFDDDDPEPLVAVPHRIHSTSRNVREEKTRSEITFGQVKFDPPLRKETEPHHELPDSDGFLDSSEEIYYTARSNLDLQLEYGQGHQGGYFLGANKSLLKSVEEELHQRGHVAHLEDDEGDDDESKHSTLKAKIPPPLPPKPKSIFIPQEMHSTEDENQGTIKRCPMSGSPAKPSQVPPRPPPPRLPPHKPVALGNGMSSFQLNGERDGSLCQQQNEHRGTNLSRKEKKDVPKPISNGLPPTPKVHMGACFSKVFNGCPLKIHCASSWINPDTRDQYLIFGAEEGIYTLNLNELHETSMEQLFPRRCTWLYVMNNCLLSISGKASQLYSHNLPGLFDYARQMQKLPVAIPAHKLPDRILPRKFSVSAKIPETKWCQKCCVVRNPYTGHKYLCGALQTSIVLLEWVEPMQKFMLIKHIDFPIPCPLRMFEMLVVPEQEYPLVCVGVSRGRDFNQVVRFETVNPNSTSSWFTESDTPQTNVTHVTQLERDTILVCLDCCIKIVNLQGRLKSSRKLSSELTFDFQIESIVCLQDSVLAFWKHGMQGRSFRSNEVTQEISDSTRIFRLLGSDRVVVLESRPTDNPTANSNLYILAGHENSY

Setting [2] is: read-out: Rucaparib / %Ctrl @ 10000nM, binding competition, % of control.
Where [3] appears, read: read-out: Talazoparib (BMN 673) / %Ctrl @ 10000nM.
Setting [4] is: read-out: Niraparib (MK-4827) / %Ctrl @ 10000nM.
Setting [5] is: read-out: Olaparib / %Ctrl @ 10000nM.

Experimental findings from article PMC7026418, “The kinase polypharmacology landscape of clinical PARP inhibitors” (Scientific Reports, 2020) are described below.

Molecules are shown by their SMILES. Read-outs that look alike come from different tables or passages of the source.

EPHA2, sequence (P29317 whole entry): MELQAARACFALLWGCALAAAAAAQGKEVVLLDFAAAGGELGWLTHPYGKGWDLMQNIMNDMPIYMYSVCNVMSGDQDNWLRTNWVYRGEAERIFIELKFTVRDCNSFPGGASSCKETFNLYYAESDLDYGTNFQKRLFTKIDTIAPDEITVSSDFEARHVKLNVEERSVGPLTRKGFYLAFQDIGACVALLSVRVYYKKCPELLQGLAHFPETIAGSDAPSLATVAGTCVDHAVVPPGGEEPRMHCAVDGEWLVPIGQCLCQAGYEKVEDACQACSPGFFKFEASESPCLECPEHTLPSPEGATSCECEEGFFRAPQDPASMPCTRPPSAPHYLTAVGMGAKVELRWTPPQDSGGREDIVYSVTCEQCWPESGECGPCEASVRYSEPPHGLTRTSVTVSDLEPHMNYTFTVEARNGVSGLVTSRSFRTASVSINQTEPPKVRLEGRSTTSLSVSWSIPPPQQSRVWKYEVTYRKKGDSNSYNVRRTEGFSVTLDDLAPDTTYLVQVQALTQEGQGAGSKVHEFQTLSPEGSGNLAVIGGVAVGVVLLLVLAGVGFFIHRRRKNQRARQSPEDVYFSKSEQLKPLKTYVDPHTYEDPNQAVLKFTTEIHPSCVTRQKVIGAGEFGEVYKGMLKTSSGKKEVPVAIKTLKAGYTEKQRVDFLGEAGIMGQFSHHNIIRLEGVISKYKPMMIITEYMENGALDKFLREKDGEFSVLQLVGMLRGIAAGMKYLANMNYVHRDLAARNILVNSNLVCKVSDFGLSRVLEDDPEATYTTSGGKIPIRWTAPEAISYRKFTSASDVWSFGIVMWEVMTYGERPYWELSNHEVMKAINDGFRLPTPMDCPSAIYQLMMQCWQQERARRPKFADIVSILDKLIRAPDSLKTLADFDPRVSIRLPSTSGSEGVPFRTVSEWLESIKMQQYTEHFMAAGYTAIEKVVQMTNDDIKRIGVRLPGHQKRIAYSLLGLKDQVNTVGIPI
CSNK1G1, sequence (Q9HCP0 whole entry): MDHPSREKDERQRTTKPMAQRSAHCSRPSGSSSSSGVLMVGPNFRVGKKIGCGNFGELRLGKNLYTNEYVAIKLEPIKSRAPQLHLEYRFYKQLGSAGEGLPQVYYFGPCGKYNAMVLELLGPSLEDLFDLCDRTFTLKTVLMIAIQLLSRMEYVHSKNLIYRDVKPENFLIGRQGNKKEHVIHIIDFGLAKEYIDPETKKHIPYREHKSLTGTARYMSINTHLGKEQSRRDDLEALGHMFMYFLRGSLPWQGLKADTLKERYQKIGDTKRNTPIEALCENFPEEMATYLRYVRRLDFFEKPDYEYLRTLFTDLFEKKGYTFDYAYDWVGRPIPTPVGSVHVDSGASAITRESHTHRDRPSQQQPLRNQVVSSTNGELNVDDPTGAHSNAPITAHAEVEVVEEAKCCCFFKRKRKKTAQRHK
KIT, sequence (P10721 whole entry): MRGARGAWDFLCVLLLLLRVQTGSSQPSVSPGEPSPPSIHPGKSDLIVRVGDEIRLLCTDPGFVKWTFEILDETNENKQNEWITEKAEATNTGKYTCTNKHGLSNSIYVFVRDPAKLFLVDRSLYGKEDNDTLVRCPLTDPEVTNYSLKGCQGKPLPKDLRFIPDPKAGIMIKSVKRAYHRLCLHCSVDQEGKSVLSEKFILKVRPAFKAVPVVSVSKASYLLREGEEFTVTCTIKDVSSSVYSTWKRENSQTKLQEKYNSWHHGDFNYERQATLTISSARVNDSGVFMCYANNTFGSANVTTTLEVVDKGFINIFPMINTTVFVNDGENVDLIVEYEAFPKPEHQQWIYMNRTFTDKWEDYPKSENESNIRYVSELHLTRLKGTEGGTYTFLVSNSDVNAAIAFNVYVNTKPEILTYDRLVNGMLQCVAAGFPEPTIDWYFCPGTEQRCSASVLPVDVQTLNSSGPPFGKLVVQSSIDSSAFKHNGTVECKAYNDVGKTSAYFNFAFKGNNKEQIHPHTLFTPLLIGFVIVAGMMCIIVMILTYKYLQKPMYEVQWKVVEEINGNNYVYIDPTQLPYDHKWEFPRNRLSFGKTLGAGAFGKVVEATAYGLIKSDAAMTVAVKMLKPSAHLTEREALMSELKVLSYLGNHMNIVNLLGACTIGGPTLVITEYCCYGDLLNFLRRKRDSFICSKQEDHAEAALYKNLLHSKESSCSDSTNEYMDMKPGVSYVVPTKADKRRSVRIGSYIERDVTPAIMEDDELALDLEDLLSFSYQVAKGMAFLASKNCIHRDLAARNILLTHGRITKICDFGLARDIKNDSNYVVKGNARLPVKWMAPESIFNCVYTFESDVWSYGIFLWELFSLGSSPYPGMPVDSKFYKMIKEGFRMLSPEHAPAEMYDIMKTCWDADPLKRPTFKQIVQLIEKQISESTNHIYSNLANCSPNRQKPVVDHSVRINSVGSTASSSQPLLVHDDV
CDK8, sequence (P49336 whole entry): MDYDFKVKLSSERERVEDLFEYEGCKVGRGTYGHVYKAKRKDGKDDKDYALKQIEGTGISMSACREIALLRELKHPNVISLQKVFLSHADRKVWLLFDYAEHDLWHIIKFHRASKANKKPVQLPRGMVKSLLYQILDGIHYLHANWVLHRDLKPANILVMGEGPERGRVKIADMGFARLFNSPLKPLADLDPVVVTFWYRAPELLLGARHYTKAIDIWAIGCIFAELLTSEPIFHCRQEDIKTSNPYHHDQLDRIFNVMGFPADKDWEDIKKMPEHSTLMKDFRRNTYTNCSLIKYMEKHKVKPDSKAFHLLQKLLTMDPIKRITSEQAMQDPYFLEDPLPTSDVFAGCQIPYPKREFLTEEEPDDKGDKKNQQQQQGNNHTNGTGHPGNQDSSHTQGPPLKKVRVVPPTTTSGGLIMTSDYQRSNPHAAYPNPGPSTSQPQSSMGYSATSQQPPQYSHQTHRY
T3 sequence (P00519 whole entry F317L): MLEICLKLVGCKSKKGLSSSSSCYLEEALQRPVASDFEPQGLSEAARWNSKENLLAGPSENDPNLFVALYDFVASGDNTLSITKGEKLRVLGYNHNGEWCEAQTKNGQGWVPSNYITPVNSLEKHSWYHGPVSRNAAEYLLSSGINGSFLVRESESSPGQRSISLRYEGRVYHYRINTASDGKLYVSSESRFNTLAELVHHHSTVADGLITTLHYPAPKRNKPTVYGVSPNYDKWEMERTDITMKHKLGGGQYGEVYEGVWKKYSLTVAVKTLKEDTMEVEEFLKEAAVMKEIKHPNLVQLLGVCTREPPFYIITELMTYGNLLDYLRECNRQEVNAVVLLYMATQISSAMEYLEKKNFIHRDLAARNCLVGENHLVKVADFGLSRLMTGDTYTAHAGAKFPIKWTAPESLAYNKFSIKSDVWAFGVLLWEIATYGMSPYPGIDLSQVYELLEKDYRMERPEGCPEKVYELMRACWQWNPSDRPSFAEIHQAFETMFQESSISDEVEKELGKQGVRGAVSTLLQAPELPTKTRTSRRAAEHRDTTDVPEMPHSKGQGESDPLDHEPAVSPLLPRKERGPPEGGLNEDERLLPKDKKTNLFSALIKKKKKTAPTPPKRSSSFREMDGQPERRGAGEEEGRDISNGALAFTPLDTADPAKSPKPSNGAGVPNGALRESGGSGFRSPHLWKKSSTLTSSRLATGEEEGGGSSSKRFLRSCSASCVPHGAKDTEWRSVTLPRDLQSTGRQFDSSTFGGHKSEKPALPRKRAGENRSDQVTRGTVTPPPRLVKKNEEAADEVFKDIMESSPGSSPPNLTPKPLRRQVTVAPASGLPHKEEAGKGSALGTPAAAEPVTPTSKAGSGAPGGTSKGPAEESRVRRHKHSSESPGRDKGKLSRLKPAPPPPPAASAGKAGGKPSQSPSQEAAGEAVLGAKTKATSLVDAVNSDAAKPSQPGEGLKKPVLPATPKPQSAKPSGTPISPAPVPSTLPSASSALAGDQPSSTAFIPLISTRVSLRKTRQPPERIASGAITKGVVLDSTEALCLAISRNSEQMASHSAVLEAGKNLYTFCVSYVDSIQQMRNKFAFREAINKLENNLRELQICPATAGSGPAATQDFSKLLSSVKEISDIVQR
PIK3CA(I800L), sequence (P42336 whole entry I800L): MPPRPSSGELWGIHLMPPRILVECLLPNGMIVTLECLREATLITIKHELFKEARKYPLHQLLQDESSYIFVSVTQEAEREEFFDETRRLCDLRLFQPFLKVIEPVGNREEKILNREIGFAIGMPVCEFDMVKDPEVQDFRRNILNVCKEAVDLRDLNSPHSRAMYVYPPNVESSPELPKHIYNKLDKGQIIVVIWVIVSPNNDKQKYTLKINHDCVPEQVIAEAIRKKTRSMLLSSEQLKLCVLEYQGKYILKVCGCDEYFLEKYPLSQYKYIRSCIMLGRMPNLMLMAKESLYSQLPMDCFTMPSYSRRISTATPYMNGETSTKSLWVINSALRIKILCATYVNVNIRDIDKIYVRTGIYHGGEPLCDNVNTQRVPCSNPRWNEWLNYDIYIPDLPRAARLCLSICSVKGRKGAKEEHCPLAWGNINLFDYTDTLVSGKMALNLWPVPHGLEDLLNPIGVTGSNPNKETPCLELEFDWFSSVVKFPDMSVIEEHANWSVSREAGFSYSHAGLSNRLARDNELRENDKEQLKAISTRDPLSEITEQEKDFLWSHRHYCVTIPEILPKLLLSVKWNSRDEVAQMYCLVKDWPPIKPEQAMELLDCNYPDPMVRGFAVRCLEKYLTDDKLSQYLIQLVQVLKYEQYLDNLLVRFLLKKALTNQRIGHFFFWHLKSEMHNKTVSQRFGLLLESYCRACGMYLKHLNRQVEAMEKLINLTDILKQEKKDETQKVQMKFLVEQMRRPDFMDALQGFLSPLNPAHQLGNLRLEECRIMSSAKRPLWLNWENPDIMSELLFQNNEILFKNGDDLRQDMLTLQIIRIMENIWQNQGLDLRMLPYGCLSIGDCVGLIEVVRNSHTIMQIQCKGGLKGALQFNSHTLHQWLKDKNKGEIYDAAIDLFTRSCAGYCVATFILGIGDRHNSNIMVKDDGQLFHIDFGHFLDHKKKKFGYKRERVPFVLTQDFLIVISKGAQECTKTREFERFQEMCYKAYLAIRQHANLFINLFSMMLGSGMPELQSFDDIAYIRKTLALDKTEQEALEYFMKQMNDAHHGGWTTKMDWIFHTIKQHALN

On to `CNCc1ccc(-c2[nH]c3cc(F)cc4c3c2CCNC4=O)cc1` [Rucaparib], for which the percent of control binding at 10 µM came out at 92% at PIKFYVE (setting [2]); 83% on PIP5K2C (setting [2]); 93% on CSNK1G1 (setting [2]); 55% on GCN2(Kin.Dom.2,S808G) (setting [2]); 69% in assay [1] (setting [2]); 100% at EPHA2 (setting [2]). The percent of control binding at 10 µM was found to be 100% at KIT (setting [2]); 86% on CDK8 (setting [2]); 66% on PIK3CA(I800L) (setting [2]); 91% at LKB1 (setting [2]); 91% on MAP4K3 (setting [2]).

On to `Cn1ncnc1[C@H]1c2n[nH]c(=O)c3cc(F)cc(c23)N[C@@H]1c1ccc(F)cc1` [Talazoparib], for which the percent of control binding at 10 µM was found to be 80% at PIKFYVE (setting [3]); 100% on PIP5K2C (setting [3]); 99% at CSNK1G1 (setting [3]); 100% at GCN2(Kin.Dom.2,S808G) (setting [3]); 58% in [1] (setting [3]); 100% on EPHA2 (setting [3]). Moreover, the percent of control binding at 10 µM at KIT (setting [3]) came to 100%; on CDK8 (setting [3]), 99%; at PIK3CA(I800L) (setting [3]), 71%; at LKB1 (setting [3]), 93%; on MAP4K3 (setting [3]), 100%.

`NC(=O)c1cccc2cn(-c3ccc([C@@H]4CCCNC4)cc3)nc12` [Niraparib]: the percent of control binding at 10 µM at PIKFYVE (setting [4]) came out at 75%; on PIP5K2C (setting [4]) it was 78%; at CSNK1G1 (setting [4]), 98%; on GCN2(Kin.Dom.2,S808G) (setting [4]), 83%; in [1] (setting [4]), 96%; on EPHA2 (setting [4]), 94%. The percent of control binding at 10 µM at KIT (setting [4]) was found to be 87%; on CDK8 (setting [4]), 68%; at PIK3CA(I800L) (setting [4]), 38%; at LKB1 (setting [4]), 100%; at MAP4K3 (setting [4]), 84%.

`O=C(c1cc(Cc2n[nH]c(=O)c3ccccc23)ccc1F)N1CCN(C(=O)C2CC2)CC1` [Olaparib]: the percent of control binding at 10 µM was found to be 100% at PIKFYVE (setting [5]); 98% at PIP5K2C (setting [5]); 97% at CSNK1G1 (setting [5]); 93% at GCN2(Kin.Dom.2,S808G) (setting [5]); 81% in [1] (setting [5]); 97% on EPHA2 (setting [5]). Moreover, the percent of control binding at 10 µM at KIT (setting [5]) came to 99%; on CDK8 (setting [5]), 100%; on PIK3CA(I800L) (setting [5]), 80%; at LKB1 (setting [5]) it was 90%; on MAP4K3 (setting [5]), 100%.
